The results in this text go back to patent publication US12168646B2, “Aryl hydrocarbon receptor agonists and uses thereof” (NEXYS THERAPEUTICS, INC., priority 2022, dated 2024).

The nature of data set [1]: Stability in human feces (azo reduction in feces homogenate). It is filed as in vitro ADME. The following applies: pH 6.8, 37° C., under nitrogen. How it is done:
Biological Data 2: Stability in Human Feces
Accordingly, selected azo compounds of the invention were exposed to human feces under conditions suitable to promote azo reduction.
The human feces from two donors were homogenized in isotonic phosphate buffered saline (pH 6.8) with a ratio of 1:10 (w/v). The tubes were sealed using sealing film. Test article was dissolved in isotonic phosphate buffer (pH 6.8) to form a working solution of 20 μM (if the solubility allows). An aliquot of working solution (50 μL) was added to the human feces homogenate (50 μL) for each time point (0, 1, 2, 4, 6 and 24 h) in duplicate and placed under nitrogen for about 1 minute in order to exhaust air, and then incubated at 37° C. After incubation at each pre-set time point, 1000 μL acetonitrile containing internal standard w as added to each tube to quench reaction. Samples were vortexed and centrifuged at 3700 rpm for 10 min and the supernatant was transferred for analysis (and diluted where necessary). The concentrations of test article and its metabolite (example 3) in the supernatants were determined using LC-MS/MS method. Sulfasalazine was used as a positive control. All incubations were performed in duplicate.

In the next data set the target is T1, AhR (Homo sapiens, UniProt P35869).
T1 construct: HT29-Lucia AhR cells were purchased from Invivogen (cat #ht21-ahr); host or cells: HT29-Lucia AhR cells
T1 sequence (P35869 11-848): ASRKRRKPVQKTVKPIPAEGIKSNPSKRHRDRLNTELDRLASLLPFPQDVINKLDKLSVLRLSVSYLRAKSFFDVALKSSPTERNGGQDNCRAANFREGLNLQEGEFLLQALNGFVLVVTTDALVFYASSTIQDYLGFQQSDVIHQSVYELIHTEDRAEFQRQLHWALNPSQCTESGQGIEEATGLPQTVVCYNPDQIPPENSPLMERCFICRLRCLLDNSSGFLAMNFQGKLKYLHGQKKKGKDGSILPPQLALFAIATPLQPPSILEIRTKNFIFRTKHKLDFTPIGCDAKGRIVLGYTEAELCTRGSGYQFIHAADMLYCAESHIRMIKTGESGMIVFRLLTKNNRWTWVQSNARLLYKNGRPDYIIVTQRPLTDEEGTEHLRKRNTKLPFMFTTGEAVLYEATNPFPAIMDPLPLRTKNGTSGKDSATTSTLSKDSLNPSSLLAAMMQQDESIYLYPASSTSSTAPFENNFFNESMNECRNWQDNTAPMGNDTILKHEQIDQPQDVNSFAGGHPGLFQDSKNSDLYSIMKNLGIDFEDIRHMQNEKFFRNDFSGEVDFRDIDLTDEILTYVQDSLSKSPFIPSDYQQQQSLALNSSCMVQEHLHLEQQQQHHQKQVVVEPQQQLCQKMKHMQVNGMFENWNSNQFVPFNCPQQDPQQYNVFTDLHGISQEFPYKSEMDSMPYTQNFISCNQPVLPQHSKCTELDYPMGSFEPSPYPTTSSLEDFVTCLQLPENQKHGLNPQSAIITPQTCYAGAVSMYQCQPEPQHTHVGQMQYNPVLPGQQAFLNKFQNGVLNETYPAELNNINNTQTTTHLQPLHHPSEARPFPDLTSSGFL
Nature of the data set: HT29 AhR Reporter Assay (HT29-Lucia AhR cells, QUANTI-Luc luminescence). It is filed as cell-based. The following applies: HT29-Lucia AhR cells. As for the experimental part: Biological Data 1: HT29 AhR Reporter Assay HT29-Lucia AhR cells were purchased from Invivogen (cat #ht21-ahr). […] The cell suspension was removed from growth medium and rinsed gently with pre-warmed PBS (10 mL). Pre-warmed Trypsin (1 mL) was added, and cells were held at 30° C. for about 5 min and then detached by pipette. The dissociated cell clumps were gently pipetted up and down. The cells were resuspended in pre-warmed detection medium (DMEM, 10% FBS (30 min at 56° C.), 100 U/ml penicillin, 100 μg/ml streptomycin, and test article or vehicle) and counted. A cell suspension of ˜500,000 cells/mL in Detection medium was prepared. […] Samples (20 μL/well) were pipetted into a 96-well white (opaque), and QUANTI-Luc™ (50 μL/well) was added. The plate was gently tapped and then read in a luminometer (0.1 s reading time).

Consider `O=C(O)c1cc(/N=N/c2ccccc2-c2ccnc(Nc3ccc(C(F)(F)F)cc3)n2)cc(C(=O)O)c1O` [Example 37, (E)-2-Hydroxy-5-((2-(2-((4-(trifluoromethyl)phenyl)amino)pyrimidin-4-yl)phenyl)diazenyl)isophthalic acid], for which, in data set [1], the “% of parent remaining after incubation for 6 h” value (“% of parent remaining” for short) is 69%.

Regarding `O=C(O)c1cc(O)ccc1/N=N/c1ccccc1-c1ccnc(Nc2ccc(C(F)(F)F)cc2)n1` [Example 38, (E)-5-hydroxy-2-((2-(2-((4-(trifluoromethyl)phenyl)amino)pyrimidin-4-yl)phenyl)diazenyl)benzoic acid], in data set [1], the “% of parent remaining” value is 4%.

Consider `O=C(O)c1ccc(/N=N/c2ccccc2-c2ccnc(Nc3ccc(C(F)(F)F)cc3)n2)c(O)c1` [Example 40, (E)-3-hydroxy-4-((2-(2-((4-(trifluoromethyl)phenyl)amino)pyrimidin-4-yl)phenyl)diazenyl)benzoic acid], for which the “% of parent remaining” value in data set [1] was 22%.

With `COc1cc(/N=N/c2ccccc2-c2ccnc(Nc3ccc(C(F)(F)F)cc3)n2)ccc1C(=O)O` [Example 42, (E)-2-methoxy-4-((2-(2-((4-(trifluoromethyl)phenyl)amino)pyrimidin-4-yl)phenyl)diazenyl)benzoic acid], the “% of parent remaining” value in data set [1] is listed as 98%.

In the case of `COc1ccc(/N=N/c2ccccc2-c2ccnc(Nc3ccc(C(F)(F)F)cc3)n2)cc1C(=O)O` [Example 43, (E)-2-methoxy-5-((2-(2-((4-(trifluoromethyl)phenyl)amino)pyrimidin-4-yl)phenyl)diazenyl)benzoic acid], the “% of parent remaining” value in data set [1] is given as 74%.

As for `N[C@H](Cc1cc(/N=N/c2ccccc2-c2ccnc(Nc3ccc(C(F)(F)F)cc3)n2)ccc1O)C(=O)O` [Example 49, (R,E)-2-amino-3-(2-hydroxy-5-((2-(2-((4-(trifluoromethyl)phenyl)amino)pyrimidin-4-yl)phenyl)diazenyl)phenyl)propanoic acid], the “% of parent remaining” value in data set [1] came out at 33%.

`O=S(=O)(O)c1cc(/N=N/c2ccccc2-c2ccnc(Nc3ccc(C(F)(F)F)cc3)n2)ccc1O` [Example 50, (E)-2-hydroxy-5-((2-(2-((4-(trifluoromethyl)phenyl)amino)pyrimidin-4-yl)phenyl)diazenyl)benzenesulfonic acid]: the “% of parent remaining” value in data set [1] came to 10%.

With `O=C(O)c1cc(O)cc(/N=N/c2ccccc2-c2ccnc(Nc3ccc(C(F)(F)F)cc3)n2)c1` [Example 55, (E)-3-hydroxy-5-((2-(2-((4-(trifluoromethyl)phenyl)amino)pyrimidin-4-yl)phenyl)diazenyl)benzoic acid], in data set [1], the “% of parent remaining” value came out at 76%.

On to `O=C(O)c1cc(/C=C/c2ccccc2-c2ccnc(Nc3ccc(C(F)(F)F)cc3)n2)ccc1O` [Example 59, (E)-2-hydroxy-5-(2-(2-((4-(trifluoromethyl)phenyl)amino)pyrimidin-4-yl)styryl)benzoic acid, reference compound], for which the “% of parent remaining” value in data set [1] was found to be 94%. At AhR (18-24 h, EC50 = concentration to reach half of maximum efficacy of reference compound VAF347), the EC50 turned out to be 1420 nM. The Emax on AhR (% efficacy = 100%*(TA-BG)/(Ref-BG), Ref = VAF347, read-out: HT29 AhR % efficacy) amounted to 74%.

As a reminder, the EC50 is the concentration giving half of the maximal effect.
